Source: patent publication US4039669A, “Composition for topical application and use thereof” (Sterling Drug Inc., priority 1975, dated 1977)

Tests used:
steroid 5α-reductase [1] = settings: cited from earlier work; for Anti-androgenic activity by inhibitory effects on steroid 5α-reductase activity: laboratory animals
[2] = in vivo; cited from earlier work
[3] = tested on: testosterone-stimulated flank organs; assay: Effect on testosterone-stimulated flank organs in the castrated hamster (topical); assay type: in vivo; settings: for Flank Organ Cholest., Mean ± S.E. / Flank Organ Diameter, Mean ± S.E. / Flank Organ Wet Wgt, Mean ± S.E. / Flank Organ Develop. (Med. Score): topical; for Flank Organ Cholest., Mean ± S.E. / Flank Organ Diameter, Mean ± S.E. / Flank Organ Wet Wgt, Mean ± S.E.: 14 times over 2 weeks; for Inhibition of testosterone-stimulated increase in the cholesterol contact of the flank organs (in words) / Reduction of testosterone-stimulated increase in flank organ diameter (in words) / Suppression of flank organ development, degree of pigmentation (in words) / Wet weight of the flank organs (in words): topical with 1 μg TP; for Flank Organ Develop. (Med. Score): degree of pigmentation, score 0 to 4, 2 weeks
Method: (§1) The effect of 17α-(n-propyl)androst-4-en-17β -ol-3-one and 17α-(n-butyl)androst-4-en-17β -ol-3-one on testosterone-stimulated flank organs and on endocrine organs in the castrated hamster was determined as follows:
(§2) Castrated hamsters were treated on both flank organs topically with testosterone propionate (TP) equivalent to 1 microgram of testosterone with or without the test agents dissolved in 5 microliters of absolute ethanol 14 times over a 2 weeks period. The hamsters were 4-5 weeks of age (55 to 75 grams body weight) and were caged individually. After the end of the two-weeks period, the development (degree of pigmentation) and diameter of the flank organs were assessed and measured, and the flank organs were punched out with an 8 mm cork borer for determination of wet weight and cholesterol content. Endocrine organ weights (adrenal gland, seminal vesicle and thymus gland) were also determined.
In the first table TP refers to testosterone propionate, Compd. I refers to 17α-(n-propyl)androst-4-en-17β -ol-3-one, Compd. II refers to 17α-(n-butyl)androst-4-en-17β -ol-3-one, and n refers to the number of animals in each group.

[4] = Subcutaneous and oral toxicity (LD50) in the rat; settings: in vivo
From the text: (§3) 17α-(n-Propyl)androst-4-en-17β -ol-3-one is conveniently prepared by a three-step synthesis from 3β -acetoxyandrost-5-en-17-one in an over-all yield of 43%. The first step is a Grignard reaction with allylmagnesium bromide to give 17α-allylandrost-5-ene-3β,17β-diol in 81% yield. The second step is a hydrogenation over 10% palladium-on-carbon catalyst to afford 17α-propylandrost-5-ene-3β, 17β-diol in 88% yield. The third step is an Oppenauer oxidation with aluminum isopropoxide to give the desired 17α-(n-propyl)androst-4-en-17β -ol-3-one in 60.5% yields.

[5] = Serum testosterone levels after topical application to sexually mature hamsters; assay type: in vivo, hamster; settings: 200 μg per flank organ topically, 3 weeks
Method: When 17α-(n-propyl)androst-4-en-17β -ol-3-one was topically applied to sexually mature hamsters at 200 μg per flank organ for a period of 3 weeks, serum testosterone levels were unchanged compared with untreated controls.

[6] = Progestational activity (Clauberg assay); assay type: in vivo
Method: When 17α-(n-propyl)androst-4-en-17β -ol-3-one was administered intramuscularly, its progestational activity was about one-fortieth that of progesterone.

[7] = Subcutaneous and oral toxicity (LD50) in the mouse; settings: in vivo
From the text: as §3

steroid 5α-reductase [8] = assay: Inhibition of conversion of testosterone to dihydrotestosterone, minced hamster flank organ, tritiated testosterone; assay type: biochemical
Method: The effectiveness of 17α-(n-propyl)androst-4-en-17β -ol-3-one in inhibiting the conversion of testosterone dihydrotestosterone by the enzyme steroid 5α-reductase was measured using minced hamster flank organ as a source of the enzyme and tritiated testosterone as a substrate. At concentrations of one-hundredth molar and one-thousandth molar, 17α-(n-propyl)androst-4-en-17β -ol-3-one was 100% and 53% inhibitory, respectively.

[9] = tested on: endocrine organs (adrenal gland, seminal vesicle and thymus gland); assay: Endocrine organ weights in the castrated hamster after topical treatment; assay type: in vivo; settings: for Endocr. Organ Wgts, Mean ± S.E.: Adrenal Gland / Endocr. Organ Wgts, Mean ± S.E.: Seminal Vesicle / Endocr. Organ Wgts, Mean ± S.E.: Thymus Gland: topical, 2 weeks; for Weights of the endocrine organs (in words): topical application, castrated hamsters
Method: as §1, §2

[10] = tested on: flank organ sebaceous glands; assay: Daily topical application to normal, sexually mature male hamsters; assay type: in vivo, hamster; settings: 200 μg daily, 6 weeks
[11] = Standard test procedures for androgenic, estrogenic or anabolic properties; assay type: in vivo
acne or sebum secretion = settings: tried topically; cited from earlier work
[12] = 200 μg topically with 1 μg testosterone propionate, castrated hamsters
[13] = oral, read-out: Oral toxicity (LD50)
[14] = sc, subcutaneous, read-out: Subcutaneous toxicity (LD50)
[15] = castrated hamsters, 1 μg TP + 100 μg test compound
[16] = castrated hamsters, 1 μg TP + 200 μg test compound
[17] = Group III: 1 μg TP + 100 μg test compound
[18] = Groups IV, V: 1 μg TP + 200 μg test compound
[19] = castrated hamsters, 1 μg TP alone

In the case of C[C@]12CC[C@H]3[C@@H](CCC4=CC(=O)CC[C@@]43C)[C@@H]1CC[C@@H]2C(=O)O [3-oxoandrost-4-ene-17β-carboxylic acid], the “Block of the action of dihydrotestosterone on flank organ responses” value (steroid 5α-reductase [1]; castrated hamsters) is listed as “did not, however, block” and the “Anti-androgenic activity by inhibitory effects on steroid 5α-reductase activity” value (steroid 5α-reductase [1]) is listed as “exhibit anti-androgenic activity”.

For CC[C@]1(O)CC[C@H]2[C@@H]3CCC4=CC(=O)CC[C@]4(C)[C@H]3CC[C@@]21C [17α-ethylandrost-4-en-17β-ol-3-one], the Systemic androgenic activity [2] is given as “have systemic androgenic activity”.

In the case of CCC[C@]1(OC=O)CC[C@H]2[C@@H]3CCC4=CC(=O)CC[C@]4(C)[C@H]3CC[C@@]21C [17β-Formyloxy-17α-(n-propyl)androst-4-en-3-one], the “Activity relative to the parent alcohol, by cholesterol content” value [3, 12] is reported as “about 40%”, the “Flank organ development (in words)” value [3, 12] is reported as “no effect” and the “Flank organ size (in words)” value [3, 12] is reported as “slightly reduced flank organ size”. The “Reduction of flank organ cholesterol content” value [3, 12] was 32% and the “Reduction of flank organ wet weight” value [3, 12] was “about 13%”.

With CCC[C@]1(O)CC[C@H]2[C@@H]3CCC4=CC(=O)CC[C@]4(C)[C@H]3CC[C@@]21C [Compd. I, 17α-(n-propyl)androst-4-en-17β -ol-3-one] the LD50 [4, 13] was greater than 5000 mg/kg, the LD50 [4, 14] was greater than 1000 mg/kg and the “Serum testosterone levels compared with untreated controls” value [5] was “unchanged”. The “Flank Organ Cholest., Mean ± S.E.” value [3, 15] was 162 ± 5.8 µg, the “Flank Organ Diameter, Mean ± S.E.” value [3, 15] was 3.71±0.22 mm and the “Flank Organ Wet Wgt, Mean ± S.E.” value [3, 15] was 28.5 ± 1.0 mg. For the same molecule, the “Flank Organ Cholest., Mean ± S.E.” value [3, 16] was 163 ± 9.4 µg, the “Flank Organ Diameter, Mean ± S.E.” value [3, 16] was 3.91±0.14 mm and the “Flank Organ Wet Wgt, Mean ± S.E.” value [3, 16] was 27.5 ± 1.3 mg. For the same molecule, the “Inhibition of testosterone-stimulated increase in the cholesterol contact of the flank organs (in words)” value ([3]; castrated hamsters) was “effective as inhibitors”, the “Reduction of testosterone-stimulated increase in flank organ diameter (in words)” value ([3]; castrated hamsters) was “effective” and the “Suppression of flank organ development, degree of pigmentation (in words)” value ([3]; castrated hamsters) was “effective in suppressing flank organ development”. For the same molecule, the “Wet weight of the flank organs (in words)” value ([3]; castrated hamsters) was “reduced the wet weight of the flank organs below that recorded for the vehicle control”, the “Flank Organ Develop. (Med. Score)” value ([3]; 1 μg TP + 100 μg test compound) was 3.5 and the “Flank Organ Develop. (Med. Score)” value ([3]; 1 μg TP + 200 μg test compound) was 3.0. For the same molecule, the “Flank Organ Develop. (Med. Score)” value ([3]; 1 μg TP + 200 μg test compound, listed as Compound I) was 3, the “Progestational activity, Clauberg assay” value ([6]; 32 mg/kg applied topically) was “minimal progestational activity” and the “Progestational activity relative to that of progesterone” value ([6]; administered intramuscularly) was “about one-fortieth”. For the same molecule, the LD50 [7, 13] was greater than 5000 mg/kg, the LD50 [7, 14] was greater than 1000 mg/kg and the “Inhibition of conversion of testosterone to dihydrotestosterone by steroid 5α-reductase” value (steroid 5α-reductase [8]; concentration one-hundredth molar) was 100%. For the same molecule, the “Inhibition of conversion of testosterone to dihydrotestosterone by steroid 5α-reductase” value (steroid 5α-reductase [8]; concentration one-thousandth molar) was 53%, the “Endocr. Organ Wgts, Mean ± S.E.: Adrenal Gland” value [9, 17] was 12.1±0.32 Mg and the “Endocr. Organ Wgts, Mean ± S.E.: Seminal Vesicle” value [9, 17] was 39.5±2.9 Mg. For the same molecule, the “Endocr. Organ Wgts, Mean ± S.E.: Thymus Gland” value [9, 17] was 58.3±6.7 Mg, the “Endocr. Organ Wgts, Mean ± S.E.: Adrenal Gland” value [9, 18] was 11.6±0.48 Mg and the “Endocr. Organ Wgts, Mean ± S.E.: Seminal Vesicle” value [9, 18] was 34.0±2.6 Mg. For the same molecule, the “Endocr. Organ Wgts, Mean ± S.E.: Thymus Gland” value [9, 18] was 43.5±4.9 Mg, the “Weights of the endocrine organs (in words)” value [9] was “not significantly altered” and the Flank organ development [10] was “caused a regression in flank organ development”. The Seminal vesicle weights [10] was “not reduced”, the “Size and lipid content of the sebaceous glands” value [10] was “significantly reduced” and the “Androgenic, estrogenic or anabolic properties” value [11] was “devoid of any significant androgenic, estrogenic or anabolic properties”.

In the case of CCCC[C@]1(O)CC[C@H]2[C@@H]3CCC4=CC(=O)CC[C@]4(C)[C@H]3CC[C@@]21C [Compd. II, 17α-(n-butyl)androst-4-en-17β -ol-3-one], the “Flank Organ Cholest., Mean ± S.E.” value [3, 16] is reported as 151 ± 8.9 µg, the “Flank Organ Diameter, Mean ± S.E.” value [3, 16] is reported as 3.24±0.13 mm and the “Flank Organ Wet Wgt, Mean ± S.E.” value [3, 16] is reported as 21.6 ± 1.2 mg. The “Inhibition of testosterone-stimulated increase in the cholesterol contact of the flank organs (in words)” value ([3]; castrated hamsters) was “effective as inhibitors”, the “Reduction of testosterone-stimulated increase in flank organ diameter (in words)” value ([3]; castrated hamsters) was “effective” and the “Suppression of flank organ development, degree of pigmentation (in words)” value ([3]; castrated hamsters) was “effective in suppressing flank organ development”. The “Wet weight of the flank organs (in words)” value ([3]; castrated hamsters) was “reduced the wet weight of the flank organs below that recorded for the vehicle control”, the “Flank Organ Develop. (Med. Score)” value ([3]; 1 μg TP + 200 μg test compound) was 1.0 and the “Flank Organ Develop. (Med. Score)” value ([3]; 1 μg TP + 200 μg test compound, listed as Compound II) was 1. The “Endocr. Organ Wgts, Mean ± S.E.: Adrenal Gland” value [9, 18] was 12.4±0.53 Mg, the “Endocr. Organ Wgts, Mean ± S.E.: Seminal Vesicle” value [9, 18] was 34.0±4.1 Mg and the “Endocr. Organ Wgts, Mean ± S.E.: Thymus Gland” value [9, 18] was 60.7±7.6 Mg. The “Weights of the endocrine organs (in words)” value [9] was “not significantly altered”.

For C[C@]12CCC(=O)C=C1CC[C@@H]1[C@@H]2CC[C@@]2(C)[C@H]1CC[C@]2(C)O [Methyltestosterone], the Systemic androgenic activity [2] is given as “have systemic androgenic activity”.

With CCC(=O)O[C@H]1CC[C@H]2[C@@H]3CCC4=CC(=O)CC[C@]4(C)[C@H]3CC[C@]12C [TP, testosterone propionate, reference compound] the “Flank Organ Cholest., Mean ± S.E.” value [3, 19] was 238 ± 26 µg, the “Flank Organ Diameter, Mean ± S.E.” value [3, 19] was 4.30±0.15 mm and the “Flank Organ Wet Wgt, Mean ± S.E.” value [3, 19] was 42.0 ± 1.2 mg. The “Flank Organ Develop. (Med. Score)” value ([3]; 1 μg TP alone) was 4.0, the “Endocr. Organ Wgts, Mean ± S.E.: Adrenal Gland” value ([9]; Group II: 1 μg TP alone) was 11.8±0.81 Mg and the “Endocr. Organ Wgts, Mean ± S.E.: Seminal Vesicle” value ([9]; Group II: 1 μg TP alone) was 35.0±2.9 Mg. For the same molecule, the “Endocr. Organ Wgts, Mean ± S.E.: Thymus Gland” value ([9]; Group II: 1 μg TP alone) was 55.2±6.5 Mg.

In the case of CC(=O)O[C@]1(C(C)=O)CC[C@H]2[C@@H]3C=C(Cl)C4=CC(=O)[C@@H]5C[C@@H]5[C@]4(C)[C@H]3CC[C@@]21C [cyproterone acetate, 6-chloro-1α , 2α-methylene-4,6-pregnadien-17α-o1-3,20-dione acetate], the “Effectiveness against acne or sebum secretion” value (acne or sebum secretion) is listed as “not to be effective”.

For COC(=O)[C@H]1CC[C@H]2[C@@H]3CCC4=CC(=O)CC[C@]4(C)[C@H]3CC[C@]12C [methyl ester thereof], the “Anti-androgenic activity by inhibitory effects on steroid 5α-reductase activity” value (steroid 5α-reductase [1]) is given as “exhibit anti-androgenic activity”.

In the case of CC(=O)[C@H]1CC[C@H]2[C@@H]3CCC4=CC(=O)CC[C@]4(C)[C@H]3CC[C@]12C [progesterone, reference compound], the “Progestational activity, Clauberg assay” value ([6]; 2 mg/kg applied topically) is reported as “maximal response”.
